Patent publication US4937346A, “Phenyl-azacykloalkanes” (Carlsson; Per Arvid Emil, priority 1979, dated 1990)

Experiments:
DA autoreceptors = assay: Effect on spontaneous locomotor activity in the rat; assay type: in vivo; conditions: for Motor activity: 0-15 min
Source text: 4. Effect on spontaneous locomotor activity in the rat.
Untreated animals exposed to a new environment display an initial high motor activity which then gradually declines over a period of time. Administration of DA-receptor agonists (e.g. apomorphine) in doses where preferential autoreceptor stimulation is likely to occur, causes a depression of the spontaneous motility mentioned above, considered to be due to the DA autoreceptor-mediated impairment of central DA transmission.
Rats (150-300 g) were injected subcutaneously with several doses of compounds 4 and after 5 minutes they were individually placed in motility boxes ("M/P 40 Fc Electronic Motility Meter". Motron Products, Stockholm) and the motor activity (0-30 min.) was quantified. […] Moreover, there seems to be a correlation between the decrease in spontaneous locomotion and the degree of antagonism of the GBL-induced increase in DA synthesis (cf. 3 above) in the limbic areas of rat brain exerted by compound 4, the per cent decrease of motor activity being roughly 0.6 times the per cent reversal of GBL-induced increase in DA-synthesis rate.

[1] = test system: central postsynaptic DA-receptor; assay: Locomotor activity in reserpine-pretreated rats, comparison of compound 4 with two known dopaminergic agonists; assay type: in vivo, rat
Protocol: Rats (150-300 g) pretreated with reserpine (10 mg/ kg i.p., 6 h before) were given either phys. saline, compound 4 (100 μmol/kg), N-n-propyl-3-(3,4-dihydroxyphenyl)piperidine (100 μmol/kg) or apomorphine ([…]) subcutaneously and the locomotor activity (accumulated counts 0-60 min.) was quantified by means of Motron boxes (see under 4 above).

[2] = test system: postsynaptic DA receptors; assay: Emetic activity in dogs; assay type: in vivo; conditions: at least at 1 mg/kg i.m.
Source text: It was in fact lacking any measurable temperature effects.

[3] = test system: dopaminergic receptors (presynaptic and postsynaptic); conditions: racemic mixtures; cited from earlier work

Compound: Br.CCCN1CCCC(c2cccc(O)c2)C1 (racemic) [Compound 4, N-n-propyl-3-(3-hydroxyphenyl)piperidine hydrobromide]
- Motor activity (DA autoreceptors; glucose i.p. + compound 4 0.5 mg/kg s.c., n=5): 43 ± 9 acc. counts
- Motor activity (DA autoreceptors; haloperidol 0.02 mg/kg i.p. + compound 4 0.5 mg/kg s.c., n=7): 80 ± 10 acc. counts
- reversal of sedative effect by haloperidol (DA autoreceptors; haloperidol 0.02 mg/kg i.p. 30 min before, compound 4 0.5 mg/kg): at least partly reversed the sedative effect
- per cent decrease of motor activity relative to per cent reversal of GBL-induced increase in DA-synthesis rate (DA autoreceptors; limbic areas, correlation): roughly 0.6 times
- locomotor stimulation (DA autoreceptors; regardless of the dose used): No locomotor stimulation was ever seen
- maximal decrease of motor activity from control values (DA autoreceptors; s.c., 0-30 min, at about 8 mg/kg): 75%
- dose at which maximal effect is attained (DA autoreceptors; s.c., 75% decrease from control values): about 8 mg/kg
- dose dependence of motor activity effect (DA autoreceptors; s.c., several doses): clear dose-dependent decrease of the initial high motor activity
- Motor activity ([1]; 0-60 min postinj., 100 μmol/kg s.c.): 55 ± 4 acc. counts
- central postsynaptic DA-receptor stimulation / motor response ([1]; s.c.): failed to elicit a motor response that differed more than slightly from control values
- emetic activity [2]: devoid of emetic activity in dogs
- activation of classical postsynaptic dopaminergic receptors [3]: no concomitant activation of the classical postsynaptic dopaminergic receptors could be detected
